Test results reported in patent US20250145573A1, “COMPOSITION FOR PREVENTING, ALLEVIATING OR TREATING CANCER” (CKP Therapeutics, Inc., priority 2023, published 2025).

Assays:
[1] = tested on: metastatic PTC cells (YUMC-P1 or -P2-meta) xenograft; assay: Human PTC cell xenograft, metastatic PTC cells; format: in vivo, mice; conditions: for tumor shrinkage: YUMC-P1 or -P2-meta xenograft; for tumor shrinkage (summary statement): xenograft tumor model developed using patient-derived antineoplastic-resistant cells
Description: (§1) All experiments were approved by the Animal Experiment Committee of Yonsei University. YUMC-S-P1, YUMC-P1 and -P2-main or meta patient-derived PTC cells (4.4×10^6 cells/mouse) were cultured in vitro and then injected subcutaneously into the upper left flank region of female NOD/Shi-scid, IL-2Rγ KOJic (NOG) mice. After 15 days, tumor-bearing mice were grouped randomly (n=10 per group) and treated SERCA inhibitors, thapsigargin (25 mg/kg), candidate 33 (12 mg/kg) and 36 (12 mg/kg, p.o.) with 80 mg/kg sorafenib (p.o.) either alone or combination. Tumor size was measured every three day using calipers. Tumor volume was estimated using the following formula: L×S2/2 (L, longest diameter; S, shortest diameter). Animals were maintained under specific pathogen-free conditions. All experiments were approved by the Animal Experiment Committee of Yonsei University.
(§2) We developed mouse xenograft models using anti cancer drug-sensitive (YUMC-S-P1) and metastatic PTC (YUMC-P1 and -P2-meta) cells and evaluated the anticancer effect of monotherapy with sorafenib, lenvatinib or with SERCA inhibitors (thapsigargin, CKP1 and 2) as well as that of the combination therapy between sorafenib or lenvatinib and a SERCA inhibitor. […] No significant changes in resected tumor weight were found between any of the treatment groups (FIG. 5a to 5e).

[2] = tested on: YUMC-S-P1, YUMC-P1-main, YUMC-P2-main cells; assay: Cell viability assay (MTT), anti-cancer drug-sensitive and main mass PTC cells; format: cell-based, human
Description: (§3) Cell viability was measured using the MTT (3-(4,5-Dimethylthiazol-2-yl)-2,5-Diphenyltetrazolium Bromide) assay, cells were seeded in 96-well plates at 7×10^3 cells per well and incubated overnight to achieve 80% confluency. The detailed protocol can be found in our previous article. Data were expressed as a percentage of the signal observed in vehicle-treated cells and are shown as the means±SEM of triplicate experiments.
(§4) To evaluate to the anti-cancer efficacy of CKP1 and 2, combinatorial strategies with sorafenib or lenvatinib, we carried out cell viability assays for anti-cancer drug-sensitive (YUMC-S-P1) and main mass or lymph node metastasis PTC (YUMC-P1-main or YUMC-P2-main or YUMC-P1-meta or YUMC-P2-meta) cells treated with sorafenib or levatinib each agent treated alone or with CKP1 and CKP2.

[3] = tested on: metastatic PTC (YUMC-P1-meta or YUMC-P2-meta) cells; assay: Cell viability assay (MTT), metastatic PTC cells; format: cell-based, human
Description: as §3, §4

[4] = tested on: YUMC-S-P1 cells xenograft; assay: Human PTC cell xenograft, anti cancer drug-sensitive PTC cells; format: in vivo, mice
Description: as §1, §2

[5] = combination of sorafenib or lenvatinib with SERCA inhibitor
[6] = SERCA inhibitor alone treatment, whole PTC cells
[7] = in combination with sorafenib or lenvatinib, dose-dependent, YUMC-S-P1, YUMC-P1-main, YUMC-P2-main
[8] = combinatorial with sorafenib or lenvatinib treatment, dose-dependent, YUMC-P1-meta or YUMC-P2-meta
[9] = SERCA inhibitor with sorafenib or lenvatinib
[10] = sorafenib or lenvatinib without CKP1 and CKP2, dose-dependent, YUMC-S-P1, YUMC-P1-main, YUMC-P2-main
[11] = sorafenib or lenvatinib treatment alone, YUMC-P1-meta or YUMC-P2-meta
[12] = sorafenib or lenvatinib without SERCA inhibitors

Row | Structure (SMILES) | tumor shrinkage [1, 5] | tumor shrinkage (summary statement) [1] | cell viability [2, 6] | cell viability [2, 7] | cell viability [3, 6] | cell viability [3, 8] | tumor size [4, 9] | tumor shrinkage ([1]; monotherapy) | cell viability [2, 10] | cell viability [3, 11] | tumor size [4, 12]
1 | Cc1cc(C=Nc2ccc(Cl)cc2)c2cccc(C)c2n1 [CKP1] | substantial tumor shrinkage | significant tumor shrinkage | did not critical influence | significantly decreased | did not critical influence | remarkably restrained the viability | decreased significantly tumor size | – | – | – | –
2 | Cc1cc(N=Cc2ccc(Cl)cc2)c2cccc(C)c2n1 [CKP2] | substantial tumor shrinkage | significant tumor shrinkage | did not critical influence | significantly decreased | did not critical influence | remarkably restrained the viability | decreased significantly tumor size | – | – | – | –
3 | COc1cc2nccc(Oc3ccc(NC(=O)NC4CC4)c(Cl)c3)c2cc1C(N)=O [lenvatinib, reference compound] | – | – | – | – | – | – | – | did not induce significant tumor shrinkage | significantly decreased | no remarkably influenced | decreased significantly tumor size
4 | CNC(=O)c1cc(Oc2ccc(NC(=O)Nc3ccc(Cl)c(C(F)(F)F)c3)cc2)ccn1 [sorafenib, reference compound] | – | – | – | – | – | – | – | did not induce significant tumor shrinkage | significantly decreased | no remarkably influenced | decreased significantly tumor size
5 | C/C=C(/C)C(=O)O[C@H]1C(C)=C2[C@H]([C@@H]1OC(=O)CCCCCCC)[C@@](C)(OC(C)=O)C[C@H](OC(=O)CCC)[C@@]1(O)[C@H]2OC(=O)[C@@]1(C)O [thapsigargin, reference compound] | substantial tumor shrinkage | – | did not critical influence | – | did not critical influence | remarkably restrained the viability | decreased significantly tumor size | – | – | – | –
